Test results from patent US20260248799A1, “COMBINATIONS OF RETINALDEHYDE DEHYDROGENASE 1 (RALDH1) INHIBITORS AND IMMUNOSTIMULATORS AND METHODS USING SAME” (The Trustees of the University of Pennsylvania, priority 2023, published 2026).
Entries after “also recorded” stand apart in the source; their conditions may differ.

What was measured:
[1] = target: T1, GABABIA (Homo sapiens, UniProt Q9UBS5); assay: Safetyscreen: GABABIA; format: binding; conditions: read-out: % Inh. GABABIA
T1 construct: purchased Eurofins Cereps Panlabs
T1 sequence (Q9UBS5 15-961 limits assumed): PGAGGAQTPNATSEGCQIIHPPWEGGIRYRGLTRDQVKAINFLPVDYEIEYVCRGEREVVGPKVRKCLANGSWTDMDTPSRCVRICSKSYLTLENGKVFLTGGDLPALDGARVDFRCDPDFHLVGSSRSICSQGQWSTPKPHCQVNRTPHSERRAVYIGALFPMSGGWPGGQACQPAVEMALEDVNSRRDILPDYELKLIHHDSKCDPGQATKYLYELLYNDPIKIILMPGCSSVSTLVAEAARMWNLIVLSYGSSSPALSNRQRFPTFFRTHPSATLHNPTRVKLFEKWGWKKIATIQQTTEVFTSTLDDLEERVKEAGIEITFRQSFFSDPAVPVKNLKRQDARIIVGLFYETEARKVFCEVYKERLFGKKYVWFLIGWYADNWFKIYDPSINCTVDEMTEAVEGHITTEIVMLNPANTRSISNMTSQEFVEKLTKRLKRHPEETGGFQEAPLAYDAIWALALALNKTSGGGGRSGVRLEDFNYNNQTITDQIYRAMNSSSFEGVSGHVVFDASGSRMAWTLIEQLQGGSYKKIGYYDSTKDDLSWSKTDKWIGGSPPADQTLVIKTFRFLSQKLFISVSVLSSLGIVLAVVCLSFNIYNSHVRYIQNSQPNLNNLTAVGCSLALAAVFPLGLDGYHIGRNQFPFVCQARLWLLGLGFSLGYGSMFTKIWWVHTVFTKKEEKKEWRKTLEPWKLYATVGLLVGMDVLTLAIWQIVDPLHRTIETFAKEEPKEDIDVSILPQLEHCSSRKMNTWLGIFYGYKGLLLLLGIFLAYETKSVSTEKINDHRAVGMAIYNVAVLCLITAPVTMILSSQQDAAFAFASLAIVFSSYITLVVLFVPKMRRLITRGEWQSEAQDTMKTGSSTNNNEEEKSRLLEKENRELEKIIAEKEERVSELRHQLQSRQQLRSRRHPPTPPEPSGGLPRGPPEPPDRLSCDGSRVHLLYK
T1 sequence (O75899 42-941 partner): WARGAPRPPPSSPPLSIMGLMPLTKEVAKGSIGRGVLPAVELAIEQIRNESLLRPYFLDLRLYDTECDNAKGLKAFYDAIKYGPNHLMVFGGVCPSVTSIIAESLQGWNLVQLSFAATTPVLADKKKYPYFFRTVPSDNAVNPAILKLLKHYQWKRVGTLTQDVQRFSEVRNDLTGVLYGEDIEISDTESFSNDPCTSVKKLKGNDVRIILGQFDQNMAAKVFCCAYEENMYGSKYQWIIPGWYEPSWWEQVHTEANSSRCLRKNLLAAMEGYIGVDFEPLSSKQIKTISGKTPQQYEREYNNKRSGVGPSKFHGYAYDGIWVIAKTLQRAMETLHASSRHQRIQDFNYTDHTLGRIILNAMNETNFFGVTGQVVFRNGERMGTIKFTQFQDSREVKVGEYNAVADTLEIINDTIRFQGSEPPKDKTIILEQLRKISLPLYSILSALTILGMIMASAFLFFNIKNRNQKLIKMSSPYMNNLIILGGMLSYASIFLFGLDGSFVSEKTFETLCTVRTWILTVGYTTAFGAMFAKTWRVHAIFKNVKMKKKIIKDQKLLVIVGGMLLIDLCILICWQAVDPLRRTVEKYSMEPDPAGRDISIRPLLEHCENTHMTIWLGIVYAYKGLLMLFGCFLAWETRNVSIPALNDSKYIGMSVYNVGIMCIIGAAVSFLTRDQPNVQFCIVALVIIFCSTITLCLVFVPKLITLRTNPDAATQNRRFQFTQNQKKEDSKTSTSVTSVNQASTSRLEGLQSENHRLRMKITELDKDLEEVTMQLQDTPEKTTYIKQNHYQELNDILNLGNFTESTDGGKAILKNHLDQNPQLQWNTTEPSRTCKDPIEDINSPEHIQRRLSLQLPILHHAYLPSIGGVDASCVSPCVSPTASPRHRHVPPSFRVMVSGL

[2] = system: Glycine, Strychnine-Sensitive; assay: Safetyscreen: Glycine, Strychnine-Sensitive; format: binding, rat; conditions: 10 μM
[3] = system: Calcium Channel L-Type, Phenylalkylamine; assay: Safetyscreen: Ca channel L-type, phenylalkylamine; format: binding, rat; conditions: 10 μM
[4] = target: T2, Progesterone PR-B (Homo sapiens, UniProt P06401); assay: Safetyscreen: Progesterone PR-B; format: binding; conditions: read-out: % Inh. Progesterone PR-B
T2 construct: Eurofins Cereps Panlabs (contract panel)

[5] = target: T3, Adrenergic β1 (Homo sapiens, UniProt P08588); assay: Safetyscreen: Adrenergic β1; format: binding; conditions: read-out: % Inh. Adrenergic β1
T3 construct: Eurofins Cerep Panlabs (contract panel)

[6] = target: T4, Leukotriene, Cysteinyl CysLT1 (Homo sapiens, UniProt Q9Y271); assay: Safetyscreen: CysLT1; format: binding; conditions: read-out: % Inh. Leukotriene, Cysteinyl CysLT1
T4 construct: purchased Eurofins Cereps Panlabs

[7] = system: murine HCC cell line (Hepa1-6); assay: AldeRed assay in Hepa1-6 cells; format: cell-based, mouse; conditions: murine HCC cell line Hepa1-6, 24 hours
Description: Cultures of tumor cells or primary monocyte-derived cells were treated with C86, C91, C99, BMS 493 (Tocris, 3509) or Win 18446 (Tocris, 4736) at a time and concentration indicated in corresponding figure legends.
The AldeRed assay (EMD Millipore) was performed according to manufacturer's instructions to identify cells with ALDH activity. In brief, single-cell suspensions of Huh7, Huh1, SNU449, SNU398, HEP3B, PLC, Hepa 1-6, Hep55, and AL458A cultured cells or single-cell suspension generated from enzymatic digestion of tumors generated from transplantation of these cells in mice (as indicated in figure legends) were incubated with a fluorescent and non-toxic ALDH substrate (AldeRed 588-A); the fluorescent product accumulates in cells proportional to their ALDH activity. The amount of fluorescence produced is measured by flow cytometry. The ALDH inhibitor diethylaminobenzaldehyde (DEAB, provided with the AldeRed assay kit) was used as a negative control for background fluorescence assessment.

[8] = system: Transporter, Adenosine; assay: Safetyscreen: Adenosine transporter; format: binding, guinea pig; conditions: 10 μM
[9] = IP pharmacokinetics and tissue distribution of C-86 in C57BL/6J mice; format: in vivo, mouse; conditions: for AUC(0-inf) / Cmax: male, C57BL/6J, mouse, mice, IP
[10] = target: T5, Adrenergic β2 (Homo sapiens, UniProt P07550); assay: Safetyscreen: Adrenergic β2; format: binding; conditions: read-out: % Inh. Adrenergic β2
T5 construct: Eurofins Cerep Panlabs (contract panel)

[11] = target: T6, Vasopressin V1A (Homo sapiens, UniProt P37288); assay: Safetyscreen: Vasopressin V1A; format: binding; conditions: read-out: % Inh. Vasopressin V1A
T6 construct: purchased Eurofins Cereps Panlabs

[12] = system: Phosphodiesterase PDE4; assay: Safetyscreen: PDE4; format: biochemical, human; conditions: 10 μM
[13] = system: Sodium Channel, Site 2; assay: Safetyscreen: Sodium Channel, Site 2; format: binding, rat; conditions: 10 μM
[14] = target: T7, Nicotinic Acetylcholine α1, Bungarotoxin (Homo sapiens, UniProt P02708+P07510+Q07001); assay: Safetyscreen: Nicotinic Acetylcholine α1; format: binding; conditions: read-out: % Inh. Nicotinic Acetylcholine α1, Bungarotoxin
T7 construct: Eurofins Cereps Panlabs (contract panel)

[15] = target: T8, Serotonin (5-Hydroxytryptamine) 5-HT3 (Homo sapiens, UniProt P46098); assay: Safetyscreen: 5-HT3; format: binding; conditions: read-out: % Inh. Serotonin (5-Hydroxytryptamine) 5-HT3
T8 construct: Eurofins Cereps Panlabs (contract panel)

[16] = target: T9, Calcium Channel N-Type (Rattus norvegicus, UniProt Q02294); assay: Safetyscreen: Ca channel N-type; format: binding; conditions: read-out: % Inh. Calcium Channel N-Type
T9 construct: purchased Eurofins Cereps Panlabs

[17] = target: T10, Monoamine Oxidase MAO-B (Homo sapiens, UniProt P27338); assay: Safetyscreen: MAO-B; format: biochemical; conditions: read-out: % Inh. Monoamine Oxidase MAO-B
T10 construct: Eurofins Cerep Panlabs (contract panel)
T10 sequence (P27338 whole entry): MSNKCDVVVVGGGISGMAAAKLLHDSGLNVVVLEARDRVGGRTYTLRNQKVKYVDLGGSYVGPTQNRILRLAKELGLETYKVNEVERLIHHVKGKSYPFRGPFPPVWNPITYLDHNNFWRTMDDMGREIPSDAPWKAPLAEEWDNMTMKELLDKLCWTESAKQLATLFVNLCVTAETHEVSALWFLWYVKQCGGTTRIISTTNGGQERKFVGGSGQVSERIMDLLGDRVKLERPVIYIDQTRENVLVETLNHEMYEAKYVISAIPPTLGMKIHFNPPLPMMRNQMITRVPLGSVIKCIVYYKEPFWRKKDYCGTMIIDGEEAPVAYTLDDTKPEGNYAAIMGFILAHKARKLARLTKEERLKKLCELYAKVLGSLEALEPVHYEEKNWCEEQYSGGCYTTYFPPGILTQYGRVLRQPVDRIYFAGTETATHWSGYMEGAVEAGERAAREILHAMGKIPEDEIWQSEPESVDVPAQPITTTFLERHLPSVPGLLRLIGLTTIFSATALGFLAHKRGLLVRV

[18] = target: T11, Opiate κ(OP2, KOP) (Homo sapiens, UniProt P41145); assay: Safetyscreen: Opiate κ; format: binding; conditions: read-out: % Inh. Opiate κ(OP2, KOP)
T11 construct: Eurofins Cereps Panlabs (contract panel)
T11 sequence (P41145 whole entry): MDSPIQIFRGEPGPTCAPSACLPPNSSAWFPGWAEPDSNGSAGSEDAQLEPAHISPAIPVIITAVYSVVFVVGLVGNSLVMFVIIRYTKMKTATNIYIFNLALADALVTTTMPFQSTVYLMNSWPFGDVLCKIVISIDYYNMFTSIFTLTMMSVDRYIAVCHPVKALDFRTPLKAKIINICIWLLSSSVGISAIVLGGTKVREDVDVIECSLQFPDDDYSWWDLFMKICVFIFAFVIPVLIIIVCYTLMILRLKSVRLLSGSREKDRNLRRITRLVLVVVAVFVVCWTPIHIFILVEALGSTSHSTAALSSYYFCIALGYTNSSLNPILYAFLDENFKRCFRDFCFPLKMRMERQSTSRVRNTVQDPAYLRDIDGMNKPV

[19] = system: Glutamate, Kainate; assay: Safetyscreen: Glutamate, Kainate; format: binding, rat; conditions: 10 μM
[20] = system: ATPase, Na+/K+, Heart, Pig; assay: Safetyscreen: ATPase, Na+/K+; format: biochemical; conditions: 10 μM
[21] = Toxicity observations with Raldh1-INH; conditions: mouse, in vivo
Description: Male CD1 or C57BL/6J mice between 6 and 8 weeks old and weighing approximately 20 to 30 grams were dosed with compound 86, compound 91, and compound 99 at 2 mg/kg (IV), 10 mg/kg (PO), and 10 or 30 mg/kg (IP). The compounds were formulated using a 20% hydroxypropyl-beta-cyclodextrin (HPbCD) solution in saline, was made on the day of dosing or directly prior to dosing. Each treatment group consisted of three mice, and plasma was collected at 5 minutes, 15 minutes, 30 minutes, 1 hour, 2 hours, 4 hours, 8 hours, 12 hours, and 24 hours post-dose for IV administration and at 15 minutes, 30 minutes, 1 hour, 2 hours, 4 hours, 8 hours, 12 hours, and 24 hours post-dose for PO administration. Approximately 0.025 mL of blood was collected from the dorsal metatarsal vein at each time point. […] Plasma samples were then stored in polypropylene tubes, quickly frozen, and kept at −75° C. until analyzed by LC/MS/MS. The following pharmacokinetic parameters were measured: Terminal half-life (T½), Concentration at immediately after injection (C0), Maximum concentration (Cmax), Time to reach max concentration (Tmax), Clearance (CL), Volume of distribution (Vd), Area under the curve (AUClast), and bioavailability (% F). Animals were also monitored during the in-life phase by once daily cage side observations; any adverse clinical signs were noted as part of the PK report.

[22] = target: T12, Monoamine Oxidase MAO-A (Homo sapiens, UniProt P21397); assay: Safetyscreen: MAO-A; format: biochemical; conditions: read-out: % Inh. Monoamine Oxidase MAO-A
T12 construct: Eurofins Cerep Panlabs (contract panel)
T12 sequence (P21397 whole entry): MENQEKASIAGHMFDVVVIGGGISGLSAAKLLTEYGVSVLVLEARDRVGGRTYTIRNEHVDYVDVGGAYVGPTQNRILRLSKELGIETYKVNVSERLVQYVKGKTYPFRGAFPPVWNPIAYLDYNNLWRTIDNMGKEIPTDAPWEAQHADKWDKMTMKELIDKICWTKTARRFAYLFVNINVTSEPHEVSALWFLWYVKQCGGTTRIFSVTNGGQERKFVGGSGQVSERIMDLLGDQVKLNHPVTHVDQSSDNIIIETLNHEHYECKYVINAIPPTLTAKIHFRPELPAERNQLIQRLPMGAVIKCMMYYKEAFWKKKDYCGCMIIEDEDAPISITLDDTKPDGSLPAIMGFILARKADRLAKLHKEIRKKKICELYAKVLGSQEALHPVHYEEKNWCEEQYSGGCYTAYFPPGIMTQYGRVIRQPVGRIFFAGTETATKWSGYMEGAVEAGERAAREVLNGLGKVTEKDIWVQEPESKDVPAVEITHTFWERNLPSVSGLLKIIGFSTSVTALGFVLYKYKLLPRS

[23] = target: T13, Adrenergic α2B (Homo sapiens, UniProt P18089); assay: Safetyscreen: Adrenergic α2B; format: binding; conditions: read-out: % Inh. Adrenergic α2B
T13 construct: Eurofins Cerep Panlabs (contract panel)
T13 sequence (P18089 whole entry): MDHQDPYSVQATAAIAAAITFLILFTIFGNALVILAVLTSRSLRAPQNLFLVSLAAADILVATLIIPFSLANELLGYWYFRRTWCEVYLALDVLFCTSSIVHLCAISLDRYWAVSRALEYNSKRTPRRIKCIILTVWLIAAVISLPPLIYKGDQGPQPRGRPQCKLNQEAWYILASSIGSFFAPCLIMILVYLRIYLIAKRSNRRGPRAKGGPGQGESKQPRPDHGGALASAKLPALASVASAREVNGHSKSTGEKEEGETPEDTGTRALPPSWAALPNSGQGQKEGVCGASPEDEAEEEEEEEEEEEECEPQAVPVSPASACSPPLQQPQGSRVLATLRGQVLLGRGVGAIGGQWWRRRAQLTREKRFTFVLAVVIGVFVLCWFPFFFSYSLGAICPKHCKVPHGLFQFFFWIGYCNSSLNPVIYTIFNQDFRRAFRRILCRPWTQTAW

[24] = target: T14, Chemokine CCR1 (Homo sapiens, UniProt P32246); assay: Safetyscreen: CCR1; format: binding; conditions: read-out: % Inh. Chemokine CCR1
T14 construct: purchased Eurofins Cereps Panlabs

[25] = target: T15, PPARγ (Homo sapiens, UniProt P37231); assay: Safetyscreen: PPARγ; format: binding
T15 construct: Eurofins Cereps Panlabs (contract panel)

[26] = target: T16, Adrenergic α1D (Homo sapiens, UniProt P25100); assay: Safetyscreen: Adrenergic α1D; format: binding; conditions: read-out: % Inh. Adrenergic α1D
T16 construct: Eurofins Cerep Panlabs (contract panel)
T16 sequence (P25100 whole entry): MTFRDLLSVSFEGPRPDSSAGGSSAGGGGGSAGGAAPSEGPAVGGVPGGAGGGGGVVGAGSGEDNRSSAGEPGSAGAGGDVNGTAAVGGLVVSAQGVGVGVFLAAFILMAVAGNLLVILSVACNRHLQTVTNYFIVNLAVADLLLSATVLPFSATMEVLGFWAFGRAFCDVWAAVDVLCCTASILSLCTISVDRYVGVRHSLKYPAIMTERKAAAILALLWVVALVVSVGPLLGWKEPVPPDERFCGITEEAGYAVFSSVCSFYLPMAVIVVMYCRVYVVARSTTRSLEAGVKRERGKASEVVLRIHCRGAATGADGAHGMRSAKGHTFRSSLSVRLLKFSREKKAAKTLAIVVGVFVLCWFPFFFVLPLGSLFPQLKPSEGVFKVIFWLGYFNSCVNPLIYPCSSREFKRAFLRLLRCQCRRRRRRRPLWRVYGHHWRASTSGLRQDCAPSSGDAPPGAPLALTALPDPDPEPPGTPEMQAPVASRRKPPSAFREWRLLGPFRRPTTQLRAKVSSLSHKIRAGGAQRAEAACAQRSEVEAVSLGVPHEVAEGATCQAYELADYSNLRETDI

[27] = target: T17, Serotonin (5-Hydroxytryptamine) 5-HT2A (Homo sapiens, UniProt P28223); assay: Safetyscreen: 5-HT2A; format: binding; conditions: read-out: % Inh. Serotonin (5-Hydroxytryptamine) 5-HT2A
T17 construct: Eurofins Cereps Panlabs (contract panel)
T17 sequence (P28223 whole entry): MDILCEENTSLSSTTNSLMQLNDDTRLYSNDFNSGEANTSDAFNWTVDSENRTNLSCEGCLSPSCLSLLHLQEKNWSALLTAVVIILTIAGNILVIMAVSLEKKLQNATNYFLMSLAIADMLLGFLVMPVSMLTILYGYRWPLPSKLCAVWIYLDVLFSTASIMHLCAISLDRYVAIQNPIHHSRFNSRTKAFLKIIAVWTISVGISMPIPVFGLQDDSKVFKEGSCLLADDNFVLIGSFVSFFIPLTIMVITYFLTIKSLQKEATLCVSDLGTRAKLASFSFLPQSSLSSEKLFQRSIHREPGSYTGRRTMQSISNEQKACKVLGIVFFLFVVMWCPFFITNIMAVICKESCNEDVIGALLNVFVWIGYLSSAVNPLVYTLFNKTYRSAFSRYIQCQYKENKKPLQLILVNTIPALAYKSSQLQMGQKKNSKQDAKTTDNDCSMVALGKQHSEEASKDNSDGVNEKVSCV

Structure (SMILES): CS(=O)(=O)N1CCN(C(=O)c2cnc3ccc(F)cc3c2N2CCC(C#N)(c3ccccc3)CC2)CC1 [Compound C-86, 1-(6-fluoro-3-(4-(methylsulfonyl)piperazine-1-carbonyl)quinolin-4-yl)-4-phenylpiperidine-4-carbonitrile]
- inhibition at 10 µM [1]: 7%
- % Inh. Glycine, Strychnine-Sensitive [2]: 23%
- % Inh. Calcium Channel L-Type, Phenylalkylamine [3]: 21%
- inhibition at 10 µM [4]: 1%
- inhibition at 10 µM [5]: 3%
- inhibition at 10 µM [6]: 5%
- AldeRed fluorescence [7]: no change in AldeRed fluorescence; also recorded: failed to reduce AldeRed fluorescence
- % Inh. Transporter, Adenosine [8]: 56%
- bio-distribution in various tissues ([9]; delivered i.p.): good bio-distribution
- AUC(0-inf) ([9]; 10 mg/kg, adipose (mesenteric)): 121000 ng·h/mL
- Cmax ([9]; 10 mg/kg, adipose (mesenteric)): 45200 ng/mL
- AUC(0-inf) ([9]; 10 mg/kg, brain): 753 ng·h/mL
- Cmax ([9]; 10 mg/kg, brain): 362 ng/mL
- AUC(0-inf) ([9]; 10 mg/kg, liver): 32900 ng·h/mL
- Cmax ([9]; 10 mg/kg, liver): 27600 ng/mL
- AUC(0-inf) ([9]; 10 mg/kg, pancreas): 35000 ng·h/mL
- Cmax ([9]; 10 mg/kg, pancreas): 34400 ng/mL
- AUC(0-inf) ([9]; 10 mg/kg, plasma): 3720 ng·h/mL
- Cmax ([9]; 10 mg/kg, plasma): 2930 ng/mL
- AUC(0-inf) ([9]; 30 mg/kg, adipose (mesenteric)): 832000 ng·h/mL
- Cmax ([9]; 30 mg/kg, adipose (mesenteric)): 140000 ng/mL
- AUC(0-inf) ([9]; 30 mg/kg, brain): 4520 ng·h/mL
- Cmax ([9]; 30 mg/kg, brain): 1150 ng/mL
- AUC(0-inf) ([9]; 30 mg/kg, liver): 174000 ng·h/mL
- Cmax ([9]; 30 mg/kg, liver): 70500 ng/mL
- AUC(0-inf) ([9]; 30 mg/kg, pancreas): 276000 ng·h/mL
- Cmax ([9]; 30 mg/kg, pancreas): 149000 ng/mL
- AUC(0-inf) ([9]; 30 mg/kg, plasma): 28000 ng·h/mL
- Cmax ([9]; 30 mg/kg, plasma): 11600 ng/mL
- inhibition at 10 µM [10]: 11%
- inhibition at 10 µM [11]: -13%
- % Inh. Phosphodiesterase PDE4 [12]: −7%
- % Inh. Sodium Channel, Site 2 [13]: 21%
- inhibition at 10 µM [14]: 2%
- inhibition at 10 µM [15]: 2%
- inhibition at 10 µM [16]: 6%
- inhibition at 10 µM [17]: 4%
- inhibition at 10 µM [18]: 41%
- % Inh. Glutamate, Kainate [19]: 11%
- % Inh. ATPase, Na+/K+, Heart, Pig [20]: 2%
- signs of toxicity [21]: no signs of toxicity have been observed
- inhibition at 10 µM [22]: 2%
- inhibition at 10 µM [23]: 9%
- inhibition at 10 µM [24]: 18%
- inhibition at 10 µM [25]: 12%
- inhibition at 10 µM [26]: 6%
- inhibition at 10 µM [27]: 36%
